In patent US8530404B2, “Compounds and methods for treatment of cancer” (FibroGen, Inc., priority 2005, dated 2013):
Marks after values point to notes of the source that are not given here.

Key:
human A549 lung tumors = assay: Subcutaneously implanted human A549 lung tumor mouse xenograft (Example 2); format: in vivo
[1] = Body weight in H-460 xenograft mice (Example 1); format: in vivo, mouse
Description: Sizes of the primary tumors were measured through the skin with calipers once per week. Tumor volumes were calculated by the formula V═(W^2*L)/2. Body weight of the mice in each group was also measured once per week during the experimental period. All animals were sacrificed following thirty-two days of treatment. Primary tumors were excised and weighed on an electronic balance. Blood samples were taken during terminal sacrifice and placed in microhematocrit tubes containing EDTA. Complete Blood Counts (CBC) and reticulocyte analysis were performed with the Cell Dyn 3700 analyzer (Abbott Diagnostics), as described by the manufacturer.
Thus, differences in tumor progression as measured by mean tumor volumes could not be attributed to any generalized toxicity or suppression of normal metabolism that might have been detected by changes in body weights.

[2] = tested on: human H-460-GFP lung tumors; assay: Orthotopically implanted human H-460-GFP lung tumor mouse xenograft, survival and metastasis (Example 3); format: in vivo; details: for Metastatic Incidence (proportion of animals exhibiting mediastinal lymph node metastasis): vehicle 9/10
Description: To examine the effect of methods and compounds of the present invention in a metastatic model of tumor progression, compounds of the invention were administered to orthotopically implanted H-460-GFP xenografted animals. Tumor models employing surgical orthotopic implantation (SOI) into the organ of origin of the original tumor are regarded as representative of cancer progression and metastasis in humans. Orthotopic implantation of H-460 increases the rate of tumor metastasis.
This experiment is carried out as described in Example 1 above, with the following modifications. To aid in identification and scoring of metastasis, the human H-460 lung cancer cell line was replaced by genetically-engineered tumors of GFP-transfected H-460 cells. 1-2 mm^3 H460-GFP lung tumor fragments were implanted by surgical orthotopic implantation (SOI) and sutured directly into lung tissue. (Yang et al., (1998) Cancer Res 58:4217-4221.) Dosing was initiated immediately after successful confirmation of tumor take by fluorescent GFP imaging (˜5 days following tumor implantation). Doxorubicin (DOX, 7.5 mg/kg, i.v. administration) was used as a chemotherapy control, and was administered on treatment days 3, 7, and 11.
In addition to weekly caliper measurement of primary tumor size, GFP imaging was performed on animals to monitor primary tumor progression and metastasis, starting the first day of treatment. Study endpoints were reached when an average tumor size of 2 cc or three morbid mice appear in any one group, whichever occurs first, regardless of treatment duration. Each animal was checked daily for mortality or signs of morbidity. Morbid animals were frozen. All animals, including dead animals, were examined by GFP imaging for primary tumor and metastasis at necropsy. Imaging and caliper measurements were used to determine the effects of treatment. Primary tumors were excised, measured and weighed at necropsy. Blood samples were taken during terminal sacrifice and complete blood counts (CBC) and reticulocyte analysis were performed.
Tumor metastasis is associated with increased morbidity and mortality in humans with metastatic cancer and in animal models of metastatic cancer. […] The increased morbidity and mortality were recorded and animals were preserved for subsequent necropsy. The study was terminated after >3 animals were found morbid in the vehicle group on treatment day 14, at which point the remaining animals were sacrificed to evaluate and compare tumor progression in the various treatment groups.
To determine metastatic frequency, the thoracic and abdominal cavities of animals were examined by fluorescent imaging.

human H-460 lung tumors = assay: Subcutaneously implanted human H-460 lung tumor mouse xenograft (Example 1); format: in vivo; details: for Mean Tumor Weight at Necropsy: day 32
Excerpt: Immuno-compromised athymic CD-1 nu/nu nude mice males (5-6 weeks old) were used in this study (Charles River Laboratories, Wilmington, Mass.). Animals were maintained in a HEPA-filtered environment during the experimental period. Cages, food, and bedding were autoclaved. Animal diets were obtained from Harlan Teklad (Madison, Wis.). […] The human H460 lung cancer cell line used was obtained from the National Cancer Institute. (Brower et al., (1986) Cancer Res 46:798-806.) Xenografted H-460 tumors are sensitive to chemotherapeutics commonly used in treatment of lung cancer. […] A stock tumor was established by subcutaneously injecting a cell suspension into nude mice. The resulting tumor was maintained in nude mice subcutaneously as tumor stock prior to use. Tumor implantation was performed when the stock tumors were in log phase of growth. Before implantation, tumor tissue was harvested from stock mice and placed in RPMI-1640 medium. Necrotic tissues were dissected away and viable tissues were cut into 1-2 mm^2 pieces. Tumor fragments were then transplanted subcutaneously to the right flank of the nude mice. Treatment (administration of compounds of the present invention) was started when the inoculated tumors reached approximately 100 mm^3, and continued for four weeks. […] [table] Sizes of the primary tumors were measured through the skin with calipers once per week. […] Body weight of the mice in each group was also measured once per week during the experimental period. All animals were sacrificed following thirty-two days of treatment. Primary tumors were excised and weighed on an electronic balance. Blood samples were taken during terminal sacrifice and placed in microhematocrit tubes containing EDTA. Complete Blood Counts (CBC) and reticulocyte analysis were performed with the Cell Dyn 3700 analyzer (Abbott Diagnostics), as described by the manufacturer.

In the case of O=C(O)CNC(=O)c1nc(Cl)c2ccccc2c1O [Compound A, [(1-Chloro-4-hydroxy-isoquinoline-3-carbonyl)-amino]-acetic acid], the “tumor weight at necropsy, Mean” value (human A549 lung tumors; 60 mg/kg PO) was 0.81 g, the “A549 mean tumor volume” value (human A549 lung tumors; week 0, 60 mg/kg PO) was 105 mm^3 and the “A549 mean tumor volume” value (human A549 lung tumors; week 1, 60 mg/kg PO) was 133 mm^3. For the same molecule, the “A549 mean tumor volume” value (human A549 lung tumors; week 2, 60 mg/kg PO) was 175 mm^3, the “A549 mean tumor volume” value (human A549 lung tumors; week 3, 60 mg/kg PO) was 234 mm^3 and the “A549 mean tumor volume” value (human A549 lung tumors; week 4, 60 mg/kg PO) was 324 mm^3. The “A549 mean tumor volume” value (human A549 lung tumors; week 5, 20 mg/kg PO) was 375 mm^3, the “A549 mean tumor volume” value (human A549 lung tumors; week 5, 60 mg/kg PO) was 348 mm^3 and the “A549 mean tumor volume” value (human A549 lung tumors; week 6, 20 mg/kg PO) was 428 mm^3. The “A549 mean tumor volume” value (human A549 lung tumors; week 6, 60 mg/kg PO) was 425 mm^3, the “A549 mean tumor volume” value (human A549 lung tumors; week 7, 20 mg/kg PO) was 523 mm^3 and the “A549 mean tumor volume” value (human A549 lung tumors; week 7, 60 mg/kg PO) was 514 mm^3. The “A549 mean tumor volume” value (human A549 lung tumors; week 8, 20 mg/kg PO) was 547 mm^3, the “A549 mean tumor volume” value (human A549 lung tumors; week 8, 60 mg/kg PO) was 538 mm^3 and the “A549 mean tumor volume” value (human A549 lung tumors; week 9, 20 mg/kg PO) was 615 mm^3. For the same molecule, the “A549 mean tumor volume” value (human A549 lung tumors; week 9, 60 mg/kg PO) was 597 mm^3, the “mean animal body weight” value ([1]; day 0, 20 mg/kg PO) was 25.2 grams and the “mean animal body weight” value ([1]; day 0, 60 mg/kg PO) was 24.5 grams. For the same molecule, the “mean animal body weight” value ([1]; day 10, 20 mg/kg PO) was 30.1 grams, the “mean animal body weight” value ([1]; day 10, 60 mg/kg PO) was 30.0 grams and the “mean animal body weight” value ([1]; day 17, 20 mg/kg PO) was 30.5 grams. For the same molecule, the “mean animal body weight” value ([1]; day 17, 60 mg/kg PO) was 30.5 grams, the “mean animal body weight” value ([1]; day 24, 20 mg/kg PO) was 30.6 grams and the “mean animal body weight” value ([1]; day 24, 60 mg/kg PO) was 30.6 grams. The “mean animal body weight” value ([1]; day 31, 20 mg/kg PO) was 30.3 grams, the “mean animal body weight” value ([1]; day 31, 60 mg/kg PO) was 29.9 grams and the “Metastatic Incidence (proportion of animals exhibiting mediastinal lymph node metastasis)” value ([2]; 20 mg/kg) was 8/10. The “Metastatic Incidence (proportion of animals exhibiting mediastinal lymph node metastasis)” value ([2]; 60 mg/kg) was 7/10, the “proportion of surviving animals” value ([2]; treatment day 9, 20 mg/kg) was 10/10 and the “proportion of surviving animals” value ([2]; treatment day 9, 60 mg/kg) was 10/10. For the same molecule, the “proportion of surviving animals” value ([2]; treatment day 11, 20 mg/kg) was 10/10, the “proportion of surviving animals” value ([2]; treatment day 11, 60 mg/kg) was 10/10 and the “proportion of surviving animals” value ([2]; treatment day 12, 20 mg/kg) was 10/10. For the same molecule, the “proportion of surviving animals” value ([2]; treatment day 12, 60 mg/kg) was 9/10, the “proportion of surviving animals” value ([2]; treatment day 13, 20 mg/kg) was 8/10 and the “proportion of surviving animals” value ([2]; treatment day 13, 60 mg/kg) was 9/10. For the same molecule, the “proportion of surviving animals” value ([2]; treatment day 14, 20 mg/kg) was 8/10, the “proportion of surviving animals” value ([2]; treatment day 14, 60 mg/kg) was 9/10 and the mean tumor volume (human H-460 lung tumors; day 0, 20 mg/kg PO) was 88 mm^3. The mean tumor volume (human H-460 lung tumors; day 0, 60 mg/kg PO) was 105 mm^3, the mean tumor volume (human H-460 lung tumors; day 10, 20 mg/kg PO) was 730 mm^3 and the mean tumor volume (human H-460 lung tumors; day 10, 60 mg/kg PO) was 895 mm^3. For the same molecule, the mean tumor volume (human H-460 lung tumors; day 17, 20 mg/kg PO) was 1376 mm^3, the mean tumor volume (human H-460 lung tumors; day 17, 60 mg/kg PO) was 1742 mm^3 and the mean tumor volume (human H-460 lung tumors; day 24, 20 mg/kg PO) was 2499** mm^3. The mean tumor volume (human H-460 lung tumors; day 24, 60 mg/kg PO) was 2662* mm^3, the mean tumor volume (human H-460 lung tumors; day 31, 20 mg/kg PO) was 2670** mm^3 and the mean tumor volume (human H-460 lung tumors; day 31, 60 mg/kg PO) was 2968* mm^3. The “Mean Tumor Weight at Necropsy” value (human H-460 lung tumors; 20 mg/kg PO) was 3.05 g and the “Mean Tumor Weight at Necropsy” value (human H-460 lung tumors; 60 mg/kg PO) was 3.09 g.

For C[C@H](NC(=O)c1ncc2cc(Oc3ccccc3)ccc2c1O)C(=O)O [Compound B, (S)-2-[(4-Hydroxy-7-phenoxy-isoquinoline-3-carbonyl)-amino]-propionic acid], the “mean animal body weight” value ([1]; day 0, 6 mg/kg PO) was 26.3 grams, the “mean animal body weight” value ([1]; day 0, 20 mg/kg PO) was 25.7 grams and the “mean animal body weight” value ([1]; day 10, 6 mg/kg PO) was 27.9 grams. For the same molecule, the “mean animal body weight” value ([1]; day 10, 20 mg/kg PO) was 27.8 grams, the “mean animal body weight” value ([1]; day 17, 6 mg/kg PO) was 29.1 grams and the “mean animal body weight” value ([1]; day 17, 20 mg/kg PO) was 29.0 grams. The “mean animal body weight” value ([1]; day 24, 6 mg/kg PO) was 29.3 grams, the “mean animal body weight” value ([1]; day 24, 20 mg/kg PO) was 29.3 grams and the “mean animal body weight” value ([1]; day 31, 6 mg/kg PO) was 29.3 grams. The “mean animal body weight” value ([1]; day 31, 20 mg/kg PO) was 29.3 grams, the mean tumor volume (human H-460 lung tumors; day 0, 6 mg/kg PO) was 101 mm^3 and the mean tumor volume (human H-460 lung tumors; day 0, 20 mg/kg PO) was 108 mm^3. It also gave a mean tumor volume (human H-460 lung tumors; day 10, 6 mg/kg PO) of 884 mm^3, a mean tumor volume (human H-460 lung tumors; day 10, 20 mg/kg PO) of 914 mm^3 and a mean tumor volume (human H-460 lung tumors; day 17, 6 mg/kg PO) of 1949 mm^3. For the same molecule, the mean tumor volume (human H-460 lung tumors; day 17, 20 mg/kg PO) was 1858 mm^3, the mean tumor volume (human H-460 lung tumors; day 24, 6 mg/kg PO) was 3131 mm^3 and the mean tumor volume (human H-460 lung tumors; day 24, 20 mg/kg PO) was 3074 mm^3. For the same molecule, the mean tumor volume (human H-460 lung tumors; day 31, 6 mg/kg PO) was 3343 mm^3, the mean tumor volume (human H-460 lung tumors; day 31, 20 mg/kg PO) was 3229 mm^3 and the “Mean Tumor Weight at Necropsy” value (human H-460 lung tumors; 6 mg/kg PO) was 4.27 g. For the same molecule, the “Mean Tumor Weight at Necropsy” value (human H-460 lung tumors; 20 mg/kg PO) was 3.60 g.
